Columns and labels:
CCKN1A gene expression = test: Fluorescence quantitative PCR in NALM6 cells, CCKN1A; type: cell-based; details: 3 μM/L, 24 hours, vs DMSO
Procedure: (§1) 5.2 After being treated with 3 μM/L GZD824 and DMSO for 24 hours, NALM6 cells were collected to 1 ml TRIzol to extract RNA and reversely transcribed into cDNA. The expressions of four genes, i.e. BCL-XL, CCND1, CDK4 and CCKN1A, in these two groups of cells were detected with the fluorescence quantitative PCR method. […] From the molecular perspective, the mechanism of GZD824 killing leukemia cells can be explained. For the experimental results, please refer to FIG. 14.

NALM6 cells = test: Apoptosis kit (ANNEXIN V, PI) flow cytometry, NALM6; type: cell-based; details: 24 hours
Procedure: (§2) 1.2 After treating NALM6 and SUPB15 cells respectively with GZD824 (3 μM, 1 μM) and DMSO of different concentrations for 24 hours, apoptosis was detected using an apoptosis kit (ANNEXIN V, PI). Please refer to FIG. 2 for the results. After treating the two types of cells NALM6 and SUPB15 respectively with GZD824 of different concentrations (3 μM/L, 1 μM/L) for 24 hours, the cells were stained with the apoptosis kit (ANNEXIN V, PI), and apoptosis was detected with flow cytometry.
5.3 After treating NALM6 cells with GZD824, SRC suppressor (KX2-391), STAT3 suppressor (HO-3867) or DMSO for 24 hours, apoptosis was detected by using the apoptosis kit (ANNEXIN V, PI). The ratio of ANNEXIN V positive cells was analyzed by statistical methods. […] For the experimental results, please refer to FIG. 15.

[1] = system: human primary leukemia cells from P #2 PDX mouse; test: Apoptosis of human primary leukemia cells from P #2 PDX mouse blood, spleen and marrow; type: cell-based; details: P #2 PDX cells; 1 μM/L, 24 hours
Procedure: 6.1 Human primary leukemia cells were collected from P #2 PDX mouse blood, spleen and marrow and the leukemia cells originated from these three different mouse organs were co-cultured with 1 μM/L GZD824 or DMSO for 24 hours. The ratios of ANNEXIN V positive cells were analyzed by statistical methods. […] Please refer to FIG. 16 for the results.

phosphorylated SRC = test: Western blot of NALM6 cells, phospho-SRC; type: cell-based; details: 3 μM/L, 1 μM/L, 24 hours
Procedure: (§3) 5.1. NALM6 cells treated with GZD824 were detected by Western blot method. After treating NALM6 cells with GZD824 of different concentrations (3 μM/L, 1 μM/L) for 24 hours, cells were collected and lysed to extract proteins. According to procedure of Western blot method, the extracted total proteins were analyzed with phospho-SRC, SRC, phospho-STAT3, STAT3, phospho-Rb, Rb and c-Myc antibodies. […] From the protein perspective, GZD824 kills leukemia cells through suppressing SRC/STAT3 signal pathway. Please refer to FIG. 13 for the experimental results.

phosphorylated STAT3 = test: Western blot of NALM6 cells, phospho-STAT3; type: cell-based; details: 3 μM/L, 1 μM/L, 24 hours
Procedure: as §3

phosphorylated Rb = test: Western blot of NALM6 cells, phospho-Rb; type: cell-based; details: 3 μM/L, 1 μM/L, 24 hours
Procedure: as §3

[2] = system: primary pre-B ALL PDX in immunodeficient mouse (NSI); test: PDX mouse model, human CD45 positive cells by flow cytometry; type: in vivo; details: vs Imatinib and DMSO
Procedure: 4.1 After administration, PDX mice originated from patient P #1 were executed. The mouse blood was treated with red blood cell lysate to obtain the peripheral blood leukocytes. The mouse spleen was ground with 100 mesh screen to obtain spleen single cells. The marrow cells in the mouse marrow were washed with 1 mL injector to obtain mouse marrow single cells. The obtained mouse peripheral blood leukocytes, mouse spleen single cells and mouse marrow single cells from the above-mentioned steps were stained with anti-CD45-PE antibody and detected with flow cytometry.
(§4) 4.2 Using the same treatment method in FIG. 9, the ratios of CD45 positive cells in mouse blood, spleen and marrow were detected by flow cytometry and the ratios of CD45 positive cells in PDX mouse blood, spleen and marrow originated from different patients (P #1(B), P #2(C), P #3(D)) were obtained by statistical analysis. […] Please refer to FIG. 10 for the results.
4.3 Using the same treatment method in FIG. 9, PDX mice originated from patient P #4 were executed after administration. The ratios of human CD45 positive cells in mouse blood, spleen and marrow were analyzed. […] Please refer to FIG. 11 for the results.
as §4, with “4.4 Using” for “4.2 Using”, “detected with” for “detected by”, “(P #4(F) and” for “(P #1(B),”, “P #5(G))” for “P #2(C), P #3(D))”, “FIG. 12” for “FIG. 10”

[3] = system: SUPB15 (Ph-positive acute lymphoblastic leukemia cell line); test: CCK8 cell activity test, SUPB15; type: cell-based; details: GZD824 0-3 μM/L, 24 hours
Procedure: 1.1 Two types of cells, i.e. NALM6 (Ph-negative acute lymphoblastic leukemia cell line) and SUPB15 (Ph-positive acute lymphoblastic leukemia cell line), were treated with GZD824 of different concentrations (0-3 μM/L) respectively. After 24 hours, CCK8 is added. The mixture was incubated for 2 hours, and then its absorption value at 450 nm was detected with a microplate reader. […] We plotted a chart of cell activity based on the growth inhibition function of GZD824 on these […] types of cells, which is as shown in FIG. 1.

CCND1 gene expression = test: Fluorescence quantitative PCR in NALM6 cells, CCND1; type: cell-based; details: 3 μM/L, 24 hours, vs DMSO
Procedure: as §1

SUPB15 cells [4] = test: Cell cycle by flow cytometry, SUPB15; type: cell-based; details: 3 μM/L, 24 hours, vs DMSO
Procedure: 1.3 After treating the two types of cells, i.e. NALM6 and SUPB15, with GZD824 (3 μM/L) and DMSO respectively for 24 hours and then treating them with a cell cycle kit, the cell cycle was measured with flow cytometry. […] Please refer to FIG. 3 for the results.

SUPB15 cells [5] = test: Apoptosis kit (ANNEXIN V, PI) flow cytometry, SUPB15; type: cell-based; details: 3 μM, 1 μM, 24 hours, vs DMSO
Procedure: as §2

With `Cc1ccc(C(=O)Nc2ccc(CN3CCN(C)CC3)c(C(F)(F)F)c2)cc1C#Cc1cnc2[nH]ncc2c1` [GZD824, (3-((1H-pyrazol[3,4-b]pyridine-5-substituted)ethinyl)-4-methyl-N-(4-((4-methylpiperazine-1-substituted)methyl)-3-(trifluoromethyl)phenyl)benzamide)] the “expression of CCKN1A gene” value (CCKN1A gene expression) was “up-regulated”, the “apoptosis (ANNEXIN V positive cells)” value (NALM6 cells; 3 μM, 1 μM, vs DMSO) was “prominently enhance apoptosis” and the “ratio of apoptosis (ANNEXIN V positive cells), comparison of inhibitors” value (NALM6 cells; GZD824 vs KX2-391 vs HO-3867 vs DMSO) was “highest ratio of apoptosis”. The “ratio of apoptosis of leukemia cells originated from the mouse marrow, compared with blood and spleen” value [1] was “lowest”, the “expression of phosphorylated SRC” value (phosphorylated SRC) was “suppresses the expression” and the “expression of phosphorylated STAT3” value (phosphorylated STAT3) was “suppresses the expression”. The “expression of phosphorylated Rb” value (phosphorylated Rb) was “suppresses the expression”, the “ratio of human CD45 positive cells in mouse blood, spleen and marrow” value ([2]; PDX patient P #1, flow pattern) was “prominently decrease the ratio of human CD45 positive cells in mouse blood, spleen and marrow” and the “ratio of human CD45 positive cells in mouse blood” value ([2]; PDX patient P #4) was “prominently decrease the ratio of human CD45 positive cells in mouse blood”. The “ratios of human CD45 positive cells in mouse blood, spleen and marrow” value ([2]; PDX patients P #1, P #2, P #3, statistical analysis) was “prominently decrease the ratios of human CD45 positive cells in mouse blood, spleen and marrow”, the “ratio of human CD45 positive cells in mouse blood” value ([2]; PDX patients P #4 and P #5, statistical analysis) was “prominently decrease the ratio of human CD45 positive cells in mouse blood” and the “cell activity (CCK8, absorption at 450 nm)” value [3] was “prominently decrease the cell activity”. For the same compound, the “expression of CCND1 gene” value (CCND1 gene expression) was “down-regulated”, the “ratio of cells at G0/G1 phase” value (SUPB15 cells [4]) was “increase the ratio of these two types of cells at G0/G1 phase” and the “apoptosis (ANNEXIN V positive cells)” value (SUPB15 cells [5]) was “prominently enhance apoptosis”.
